From the NIST ThermoML archive (doi:10.1016/j.jct.2007.11.011)
± gives the expanded uncertainty stated by the source.

Assay: xn = mol fraction of the nth substance listed
Conditions: Liquid

CCOS(=O)(=O)[O-].CCn1cc[n+](C)c1 [1-ethyl-3-methylimidazolium ethyl sulfate] + CO
mass density [kg/m3]
Conditions	100 kPa	2500 kPa	5000 kPa	10000 kPa	15000 kPa	20000 kPa	25000 kPa	30000 kPa	35000 kPa
323.15 K, x1 = 0.04781	–	–	–	868.74 ± 0.83	872.87 ± 0.94	876.82 ± 1.1	880.61 ± 1.2	884.24 ± 1.3	887.77 ± 1.4
323.15 K, x1 = 0.1026	–	–	–	942.8 ± 0.59	946.41 ± 0.62	949.87 ± 0.64	953.21 ± 0.67	956.44 ± 0.69	959.59 ± 0.7
323.15 K, x1 = 0.1977	–	–	1024.01 ± 0.5	1027.14 ± 0.52	1030.2 ± 0.55	1033.16 ± 0.58	1036.04 ± 0.62	1038.84 ± 0.67	1041.58 ± 0.71
323.15 K, x1 = 0.2432	–	–	1052.99 ± 0.54	1055.97 ± 0.59	1058.89 ± 0.65	1061.72 ± 0.71	1064.46 ± 0.78	1067.16 ± 0.86	1069.79 ± 0.94
323.15 K, x1 = 0.3026	–	–	1084.11 ± 0.61	1086.92 ± 0.69	1089.69 ± 0.78	1092.38 ± 0.87	1094.99 ± 0.98	1097.52 ± 1.1	1100.04 ± 1.2
323.15 K, x1 = 0.3887	–	–	1118.22 ± 0.7	1120.88 ± 0.81	1123.48 ± 0.93	1126.02 ± 1.1	1128.5 ± 1.2	1130.9 ± 1.4	1133.28 ± 1.6
323.15 K, x1 = 0.485	–	–	1146.43 ± 0.77	1148.93 ± 0.91	1151.4 ± 1.1	1153.83 ± 1.3	1156.17 ± 1.5	1158.47 ± 1.7	1160.75 ± 1.9
323.15 K, x1 = 0.589	–	–	1169.35 ± 0.83	1171.75 ± 1	1174.11 ± 1.2	1176.44 ± 1.4	1178.7 ± 1.6	1180.91 ± 1.9	1183.11 ± 2.1
323.15 K, x1 = 0.7289	–	–	1192.7 ± 0.89	1194.99 ± 1.1	1197.27 ± 1.4	1199.49 ± 1.6	1201.68 ± 1.8	1203.82 ± 2.1	1205.91 ± 2.4
323.15 K, x1 = 0.8521	–	–	1207.44 ± 0.94	1209.67 ± 1.2	1211.88 ± 1.4	1214.04 ± 1.7	1216.15 ± 2	1218.23 ± 2.2	1220.28 ± 2.5
323.15 K, x1 = 0.9397	–	–	1217.06 ± 0.97	1219.28 ± 1.2	1221.46 ± 1.5	1223.61 ± 1.8	1225.7 ± 2	1227.76 ± 2.3	1229.79 ± 2.6
333.15 K, x1 = 0.04781	850.98 ± 0.64	853.34 ± 0.69	855.7 ± 0.75	860.18 ± 0.87	864.49 ± 0.98	868.61 ± 1.1	872.54 ± 1.2	876.32 ± 1.3	879.95 ± 1.4
333.15 K, x1 = 0.1026	926.85 ± 0.53	928.81 ± 0.55	930.83 ± 0.57	934.71 ± 0.61	938.46 ± 0.65	942.07 ± 0.68	945.55 ± 0.71	948.89 ± 0.74	952.14 ± 0.78
333.15 K, x1 = 0.1977	1012.95 ± 0.48	1014.54 ± 0.48	1016.23 ± 0.49	1019.48 ± 0.5	1022.66 ± 0.52	1025.73 ± 0.55	1028.71 ± 0.58	1031.6 ± 0.62	1034.42 ± 0.66
333.15 K, x1 = 0.2432	1042.28 ± 0.5	1043.81 ± 0.51	1045.4 ± 0.53	1048.48 ± 0.57	1051.51 ± 0.62	1054.43 ± 0.67	1057.29 ± 0.74	1060.06 ± 0.81	1062.76 ± 0.88
333.15 K, x1 = 0.3026	1073.72 ± 0.54	1075.11 ± 0.56	1076.58 ± 0.6	1079.47 ± 0.66	1082.32 ± 0.74	1085.07 ± 0.83	1087.76 ± 0.93	1090.37 ± 1	1092.96 ± 1.2
333.15 K, x1 = 0.3887	1108.15 ± 0.59	1109.48 ± 0.63	1110.88 ± 0.68	1113.59 ± 0.78	1116.27 ± 0.9	1118.87 ± 1	1121.41 ± 1.2	1123.9 ± 1.4	1126.35 ± 1.5
333.15 K, x1 = 0.485	1136.7 ± 0.63	1137.95 ± 0.69	1139.28 ± 0.75	1141.86 ± 0.89	1144.4 ± 1	1146.86 ± 1.2	1149.29 ± 1.4	1151.66 ± 1.6	1153.97 ± 1.8
333.15 K, x1 = 0.589	1159.94 ± 0.66	1161.11 ± 0.73	1162.35 ± 0.81	1164.82 ± 0.97	1167.24 ± 1.2	1169.62 ± 1.4	1171.94 ± 1.6	1174.22 ± 1.8	1176.46 ± 2
333.15 K, x1 = 0.7289	1183.49 ± 0.7	1184.59 ± 0.79	1185.79 ± 0.87	1188.13 ± 1.1	1190.47 ± 1.3	1192.77 ± 1.6	1194.98 ± 1.8	1197.18 ± 2	1199.35 ± 2.3
333.15 K, x1 = 0.8521	1198.51 ± 0.73	1199.19 ± 0.82	1200.35 ± 0.92	1202.62 ± 1.1	1204.87 ± 1.4	1207.1 ± 1.6	1209.26 ± 1.9	1211.4 ± 2.2	1213.49 ± 2.4
333.15 K, x1 = 0.9397	1207.93 ± 0.75	1209.04 ± 0.85	1210.2 ± 0.95	1212.45 ± 1.2	1214.69 ± 1.5	1216.87 ± 1.7	1219.03 ± 2	1221.13 ± 2.3	1223.21 ± 2.5
